Results as given in patent US20230382871A1, “CSF1R KINASE INHIBITOR AND USE THEREOF” (SHANGHAI INSTITUTE OF MATERIA MEDICA, CHINESE ACADEMY OF …, priority 2020, published 2023).

How the values were obtained:
[1] = test system: human colorectal cancer HT-29 subcutaneous xenografts; assay: Human colorectal cancer HT-29 subcutaneous xenografts in nude mice; format: in vivo, BALB/c nude mice; conditions: for Body Weight (g) D 21 / RTV (mean ± SD) / TV (mm3, mean ± SD) D 21: D 21; for T/C (%): Day 21
Description: BALB/c female nude mice of 6 weeks old were used, and were provided by Shanghai Lingchang Biotechnology Co., Ltd.
Human colorectal cancer HT-29 cells were subcutaneously inoculated into the right axillary fossa of a nude mouse (5×10^6 cells/mouse). After a xenograft was formed, the tumor was transferred to a nude mouse for 1 passage.
Tumor tissues at the vigorous growth stage were removed and cut into pieces of approximately 1.5 mm^3. The tumor fragments were inoculated subcutaneously into the right axillary fossa of nude mice under aseptic conditions. The diameters of the subcutaneous xenografts in nude mice were measured with a vernier caliper. The animals were randomly grouped after the xenografts reached an average volume of about 120 mm^3. Compound I was administered orally at doses of 20 mg/kg, 10 mg/kg and 5 mg/kg twice a day for 21 consecutive days. An equal volume of a blank preparation was administered orally twice a day for 21 consecutive days. The positive control drug Axitinib was administered orally at a dose of 40 mg/kg group twice a day for 21 consecutive days. An equal volume of water for injection was administered to the animals in the solvent group. Throughout the experiment, the diameters of the xenografts were measured twice a week and the mice were weighed at the same time. The tumor volume (TV) was calculated as TV=½×a×b^2, where “a” and “b” denote the length and width of a tumor, respectively. The relative tumor volume (RTV) was calculated from the measurement results with the calculation formula RTV=Vt/V0, in which V0 is the tumor volume measured upon administration after grouping (i.e., D0) and Vt is the tumor volume from each measurement. The evaluation index of anti-tumor activity is the relative tumor proliferation rate T/C (%), which is calculated as T/C (%)=(TRTV/CRTV)×100%, in which TRTV denotes the RTV from the treatment group and CRTV denotes the RTV from solvent group.

[2] = test system: human glioma U87MG subcutaneous xenografts; assay: Human glioma U87MG subcutaneous xenografts in nude mice; format: in vivo, BALB/c nude mice; conditions: for Body Weight (g) D 21 / RTV (mean ± SD) / TV (mm^3, mean ± SD) D 21: D 21; for T/C (%): Day 21
Method: BALB/c nude female mice of 3-4 weeks old were used, and were provided by […] […] OF MATERIA MEDICA, CHINESE ACADEMY OF SCIENCES.
Human glioma U87MG cells were subcutaneously inoculated into the right axillary fossa of a nude mouse (5×10^6 cells/mouse). After a xenograft was formed, the tumor was transferred to a nude mouse for 1 passage.
Tumor tissues at the vigorous growth stage were removed and cut into pieces of approximately 1.5 mm^3. The tumor fragments were inoculated subcutaneously into the right axillary fossa of nude mice under aseptic conditions. The diameters of the subcutaneous xenografts in nude mice were measured with a vernier caliper. The animals were randomly grouped after the xenografts reached an average volume of about 90 mm^3. Compound I was administered orally at doses of 40 mg/kg, 20 mg/kg and 10 mg/kg twice a day for 21 consecutive days. An equal volume of a blank preparation was administered orally twice a day for 21 consecutive days. The positive control drug Axitinib was administered orally at a dose of 40 mg/kg group twice a day for 21 consecutive days. An equal volume of water for injection was administered to the animals in the solvent group. Throughout the experiment, the diameters of the xenografts were measured twice a week and the mice were weighed at the same time. The tumor volume (TV) was calculated as TV=½×a×b^2, where “a” and “b” denote the length and width of a tumor, respectively. The relative tumor volume (RTV) was calculated from the measurement results with the calculation formula RTV=Vt/V0, in which V0 is the tumor volume measured upon administration after grouping (i.e., D0) and Vt is the tumor volume from each measurement. The evaluation index of anti-tumor activity is the relative tumor proliferation rate T/C (%), which is calculated as T/C (%)=(TRTV/CRTV)×100%, in which TRTV denotes the RTV from the treatment group and CRTV denotes the RTV from solvent group.

[3] = test system: macrophage marker F4/80 in U87MG tumor tissues; assay: Immunohistochemistry of macrophage marker F4/80 in U87MG tumor tissues; format: in vivo, nude mice; conditions: 40 mg/kg, compared with blank preparation group
Method: At the end of the in vivo experiments, U87MG and HT-29 xenografts in nude mice were removed and fixed with […] to prepare paraffin sections.
Expression of individual proteins was assessed using multiplicative quick score method (MQS). This evaluation method takes into account both the staining intensity and the staining range. The method estimates the proportion of positive cells and gives a range score from 1 to 6 (1=1%-4%; 2=5%-19%; 3=20%-39%; 4=40%-59%; 5=60%-79%; 6=80%-100%). The average intensity score of positive stained cells was 0 to 3 (0=no staining; 1=weak staining; 2=moderate staining; 3=strong staining). The total score a (minimum 0 and maximum 18) is then calculated by multiplying the range score by the intensity score.
For detecting the changes in the macrophage marker F4/80 and M2-type macrophage marker CD206 in the U87MG tumor tissues, quantitative analysis (solvent: n=6, blank preparation: n=6, Compound I (10 mg/kg): n=6, Compound I (20 mg/kg): n=6, Compound I (40 mg/kg): n=6, Axitinib: n=4) was performed on all sections and the experimental data were analyzed for significant differences using the t-test. * denotes p<0.05 as compared with the blank preparation group, ** denotes p<0.01 as compared with the blank preparation group, and denotes p<0.001 as compared with the blank preparation group.

With `Cc1cc(NC(=O)c2cccc3cc(-c4cccc5[nH]nc(N)c45)ccc23)ccc1F` [Compound I] as the compound, how does the “Body Weight (g) D 0” value ([1]; 5 mg/kg bid × 21 po) read?
Its value is 19.7 g.

What about the “TV (mm3, mean ± SD) D 0” value ([1]; 5 mg/kg bid × 21 po) of the same compound?
The value was 113 ± 28 mm3.

What about the “Body Weight (g) D 21” value ([1]; 5 mg/kg bid × 21 po) of the same compound?
Its value is 18.6 g.

And the “RTV (mean ± SD)” value ([1]; 5 mg/kg bid × 21 po)?
The value was 3.76 ± 0.87.

And the “TV (mm3, mean ± SD) D 21” value ([1]; 5 mg/kg bid × 21 po)?
The value was 427 ± 157 mm3.

What about the “T/C (%)” value ([1]; 5 mg/kg bid × 21 po) of the same compound?
The value was 42.70%.

What about the “Body Weight (g) D 0” value ([1]; 10 mg/kg bid × 21 po) of the same compound?
The value was 19.8 g.

And the “TV (mm3, mean ± SD) D 0” value ([1]; 10 mg/kg bid × 21 po)?
The value was 120 ± 33 mm3.

What about the “Body Weight (g) D 21” value ([1]; 10 mg/kg bid × 21 po) of the same compound?
Its value is 18.1 g.

And the “RTV (mean ± SD)” value ([1]; 10 mg/kg bid × 21 po)?
The value was 2.75 ± 1.04.

What about the “TV (mm3, mean ± SD) D 21” value ([1]; 10 mg/kg bid × 21 po) of the same compound?
The value was 336 ± 173 mm3.

And the “T/C (%)” value ([1]; 10 mg/kg bid × 21 po)?
Its value is 31.27%.

And the “Body Weight (g) D 0” value ([1]; 20 mg/kg bid × 21 po)?
Its value is 20.1 g.

And the “TV (mm3, mean ± SD) D 0” value ([1]; 20 mg/kg bid × 21 po)?
The value was 121 ± 35 mm3.

What about the “Body Weight (g) D 21” value ([1]; 20 mg/kg bid × 21 po) of the same compound?
Its value is 18.2 g.

What about the “RTV (mean ± SD)” value ([1]; 20 mg/kg bid × 21 po) of the same compound?
Its value is 1.53 ± 0.25.

And the “TV (mm3, mean ± SD) D 21” value ([1]; 20 mg/kg bid × 21 po)?
Its value is 188 ± 69 mm3.

What about the “T/C (%)” value ([1]; 20 mg/kg bid × 21 po) of the same compound?
Its value is 17.38%.

What about the “Body Weight (g) D 0” value ([2]; 10 mg/kg bid × 21 po) of the same compound?
Its value is 15.7 g.

What about the “TV (mm^3, mean ± SD) D 0” value ([2]; 10 mg/kg bid × 21 po) of the same compound?
Its value is 87 ± 17 mm^3.

And the “Body Weight (g) D 21” value ([2]; 10 mg/kg bid × 21 po)?
The value was 17.3 g.

And the “RTV (mean ± SD)” value ([2]; 10 mg/kg bid × 21 po)?
The value was 3.57 ± 1.06.

What about the “TV (mm^3, mean ± SD) D 21” value ([2]; 10 mg/kg bid × 21 po) of the same compound?
Its value is 302 ± 72 mm^3.

What about the “T/C (%)” value ([2]; 10 mg/kg bid × 21 po) of the same compound?
Its value is 11.91%.

What about the “Body Weight (g) D 0” value ([2]; 20 mg/kg bid × 21 po) of the same compound?
Its value is 16.7 g.

And the “TV (mm^3, mean ± SD) D 0” value ([2]; 20 mg/kg bid × 21 po)?
The value was 87 ± 17 mm^3.

And the “Body Weight (g) D 21” value ([2]; 20 mg/kg bid × 21 po)?
Its value is 16.9 g.

And the “RTV (mean ± SD)” value ([2]; 20 mg/kg bid × 21 po)?
Its value is 2.44 ± 1.58.

What about the “TV (mm^3, mean ± SD) D 21” value ([2]; 20 mg/kg bid × 21 po) of the same compound?
Its value is 200 ± 100 mm^3.

What about the “T/C (%)” value ([2]; 20 mg/kg bid × 21 po) of the same compound?
The value was 8.14%.

What about the “Body Weight (g) D 0” value ([2]; 40 mg/kg bid × 21 po) of the same compound?
Its value is 17.0 g.

And the “TV (mm^3, mean ± SD) D 0” value ([2]; 40 mg/kg bid × 21 po)?
Its value is 87 ± 15 mm^3.

What about the “Body Weight (g) D 21” value ([2]; 40 mg/kg bid × 21 po) of the same compound?
The value was 17.6 g.

And the “RTV (mean ± SD)” value ([2]; 40 mg/kg bid × 21 po)?
The value was 2.93 ± 0.50.

And the “TV (mm^3, mean ± SD) D 21” value ([2]; 40 mg/kg bid × 21 po)?
Its value is 251 ± 37 mm^3.

What about the “T/C (%)” value ([2]; 40 mg/kg bid × 21 po) of the same compound?
Its value is 9.77%.

What about the “expression of F4/80 in macrophages, U87MG tumor tissue” value [3] of the same compound?
Its value is “significantly reduced”.
